Data set [1] is described as follows: Comparative metabolism/PK of 2R and deuterated 7R in rats after oral administration. The format is in vivo, Sprague Dawley rats. The settings on record: for concentration at 0.083 h / concentration at 0.25 h / concentration at 0.5 h / concentration at 1 h / concentration at 2 h / concentration at 4 h: oral; for concentration at 0.083 h: 0.083 h after 10 mg/kg po of 2R or 7R; for concentration at 0.25 h: 0.25 h after 10 mg/kg po of 2R or 7R; for concentration at 0.5 h: 0.5 h after 10 mg/kg po of 2R or 7R; for concentration at 1 h: 1 h after 10 mg/kg po of 2R or 7R; for concentration at 2 h: 2 h after 10 mg/kg po of 2R or 7R; for concentration at 4 h: 4 h after 10 mg/kg po of 2R or 7R. Here is the method:
Animals. Male Sprague Dawley rats were used in these studies. Animals were randomly assigned to treatment groups and were fasted for 4 h before dosing.
Drugs. Test compounds 2R and 7R were dissolved in a vehicle consisting of normal saline. They were then administered orally (po) at a dose of 10 mg/kg (calculated based on freebase), and at a volume of 5 mL/kg body weight.
(§1) Sample Collection and Bioanalysis. Blood samples (approximately 60 μL) were collected under light isoflurane anesthesia (Surgivet®) from the retro orbital plexus at 0.08, 0.25, 0.5, 1, 2, 4, 8, and 24 h (4 animals per time point). Immediately after blood collection, plasma was harvested by centrifugation at 4,000 rpm for 10 min at 4° C. and samples were stored at −70±10° C. until bioanalysis. Following blood collection, animals were immediately sacrificed, the abdominal vena-cava was cut open, and the whole body was perfused from the heart using 10 mL of normal saline, and brain samples were collected from all animals. After isolation, brain samples were rinsed three times in ice-cold normal saline (for 5-10 seconds/rinse using ˜5-10 mL normal saline in disposable petri dish for each rinse) and dried on blotting paper. Brain samples were homogenized using ice-cold phosphate-buffered saline (pH 7.4) Total homogenate volume was three times the tissue weight. All homogenates were stored at −70±10° C. until bioanalysis. For bioanalysis, 25 μL aliquots of plasma/brain study samples or spiked plasma/brain calibration standards were added to individual pre-labeled micro-centrifuge tubes followed by 100 μL of an internal standard solution (glipizide, 500 ng/mL in acetonitrile) except for blanks, where 100 μL of acetonitrile was added. Samples were vortexed for 5 minutes and then centrifuged for 10 minutes at 4,000 rpm at 4° C. Following centrifugation, 100 μL of each clear supernatant was transferred to a 96 well plate and analyzed with a fit-for-purpose LC-MS/MS method, with authentic samples of each analyte used for calibration and identification. Concentrations of parent compound (2R or 7R) and metabolite 1R were determined in all samples.
(§2) Data Analysis. Pharmacokinetic parameters were estimated using the non-compartmental analysis tool of Phoenix® WinNonlin software (Ver 8.0).

Data set [2] is described as follows: Oral bioavailability in mice, Method B (plasma and brain PK). The format is in vivo, C57BL/6 mice. The settings on record: for half-life / Cmax / AUC(0-inf): male, C57BL/6; for half-life / Cmax / AUC(0-inf) / AUC0-inf (iv) / AUC0-inf (po) / F: Method B; for AUC(0-inf) / AUC0-inf (iv) / AUC0-inf (po): values represent AUC0-last; for F: 1 mg/kg. How it is done:
Animals. Male C57BL/6 mice were used in these studies. Animals were randomly assigned to treatment groups and were fasted for 4 h before dosing.
Drugs. Test compounds were dissolved in a vehicle consisting of normal saline (for compounds used as the HCl salt) or normal saline slightly acidified with aq. HCl (for freebase compounds). They were then administered intravenously (iv) or orally (po) at a dose of 1 or 10 mg/kg (calculated based on freebase), as indicated, and at a volume of 5 mL/kg body weight. Compounds were tested as the racemates or pure enantiomers, as indicated.
as §1, with “˜5-10 mL,” for “˜5-10 mL”, “(pH 7.4).” for “(pH 7.4)”, “identification.” for “identification. Concentrations of parent compound (2R or 7R) and metabolite 1R were determined in all samples.”
as §2

Setting [3] is: male, Sprague Dawley, rat, plasma, 10 mg/kg, rat plasma, read-out: Mean plasma concentration.
[4] abbreviates: rat brain after 10 mg/kg po of 2R or 7R, parent or metabolite 1R as labelled.
Where [5] appears, read: mouse brain, 1 mg/kg iv, read-out: t1/2 (iv).
Where [6] appears, read: mouse brain, 1 mg/kg po, read-out: t1/2 (po).
[7] abbreviates: mouse plasma, 1 mg/kg iv, read-out: t1/2 (iv).
[8] abbreviates: mouse plasma, 1 mg/kg iv, read-out: AUC0-inf (iv) (converted).
Where [9] appears, read: mouse plasma, 1 mg/kg po, read-out: t1/2 (po).
Where [10] appears, read: mouse plasma, 1 mg/kg po, read-out: AUC0-inf (po) (converted).
Setting [11] is: mouse brain, calculated based on brain exposure (AUC0-last).
[12] abbreviates: mouse plasma, based on AUC0-last.
[13] abbreviates: male, Sprague Dawley, rat, brain, 10 mg/kg, rat brain, read-out: Mean brain concentration.

The structures appear in SMILES notation. Like-named read-outs stand apart in the source and are kept apart here.

What is called Cmax is the highest concentration seen after dosing. With `CN[C@@]1(c2ccc(F)cc2)CCCCC1=O` [Compound 2R, (R)-2-(4-fluorophenyl)-2(methylamino)cyclohexan-1-one], the half-life in data set [1] (male, Sprague Dawley, rat, brain, po, 10 mg/kg, rat brain after 10 mg/kg po of 2R or 7R, parent or metabolite 1R as labelled, read-out: t1/2 (brain)) was determined as 71 min; in data set [1] (male, Sprague Dawley, rat, plasma, po, 10 mg/kg, rat plasma after 10 mg/kg po of 2R or 7R, parent or metabolite 1R as labelled, read-out: t1/2 (plasma)) it was 70 min; in data set [2] (setting [5]), 23.4 min; in data set [2] (setting [6]) it was 36 min; in data set [2] (setting [7]), 45 min; in data set [2] (setting [9]), 29.4 min. Further, the concentration at 0.083 h in data set [1] (setting [3]) was 37 ng/mL. Also, the concentration at 0.25 h in data set [1] (setting [3]) was 760 ng/mL. In addition, in data set [1] (setting [3]), the concentration at 0.5 h worked out at 850 ng/mL. The concentration at 1 h in data set [1] (setting [3]) came out at 497 ng/mL. In data set [1] (setting [3]), the concentration at 2 h was 142 ng/mL. Besides, the concentration at 4 h in data set [1] (setting [3]) stood at 42 ng/mL. Besides, the Cmax in data set [1] (male, Sprague Dawley, rat, plasma, po, 10 mg/kg, rat plasma after 10 mg/kg po of 2R or 7R, parent or metabolite 1R as labelled) came out at 850 ng/mL; in data set [2] (mouse brain, 1 mg/kg po), 177 ng/g; in data set [2] (mouse plasma, 1 mg/kg po), 53.6 ng/mL. Moreover, the AUC(0-t) in data set [1] (male, Sprague Dawley, rat, plasma, po, 10 mg/kg, rat plasma after 10 mg/kg po of 2R or 7R, parent or metabolite 1R as labelled, read-out: AUC0-last (plasma) (converted)) was 1200 ng·h/mL. In addition, the “AUC0-last (brain)” value in data set [1] (setting [4]) was found to be 227268 ng·min/g. Also, the “Cmax (brain)” value in data set [1] (setting [4]) is 2599 ng/g. The AUC(0-inf) was 96.3 ng·h/mL in data set [2] (setting [8]) and 38.8 ng·h/mL in data set [2] (setting [10]). Besides, the “brain exposure after oral administration compared to enantiomer 2S” value in data set [2] (mice) is given as “substantially higher brain exposure”. In data set [2] (mouse brain, 1 mg/kg iv), the “AUC0-inf (iv)” value was 17,791 ng*min/g. Further, the “AUC0-inf (po)” value in data set [2] (mouse brain, 1 mg/kg po) is 5,890 ng*min/g. Besides, the F in data set [2] (setting [11]) was 33%; in data set [2] (setting [12]) it was 40%.
Turning to `CN[C@]1(c2ccc(F)cc2)CCCCC1=O` [Compound 2S, (S)-2-(4-fluorophenyl)-2-(methylamino)cyclohexan-1-one], in data set [1] (setting [13]), the concentration at 0.083 h turned out to be 43 ng/g, the concentration at 0.25 h worked out at 1900 ng/g, the concentration at 0.5 h was 2600 ng/g and the concentration at 1 h amounted to 1510 ng/g. Besides, in data set [1] (setting [13]), the concentration at 2 h turned out to be 521 ng/g and the concentration at 4 h amounted to 155 ng/g. Moreover, in data set [2] (setting [5]), the half-life was 21.6 min. In data set [2] (mouse brain, 1 mg/kg po), the highest level (Cmax) was 80.4 ng/g and the “AUC0-inf (po)” value was 4,264 ng*min/g. Further, the half-life in data set [2] (setting [6]) was found to be 42 min. Besides, the half-life in data set [2] (setting [7]) was found to be 54.6 min. For the same compound, the AUC(0-inf) in data set [2] (setting [8]) was 119 ng·h/mL. Also, in data set [2] (mouse plasma, 1 mg/kg po), the Cmax was 51.7 ng/mL. For the same compound, the half-life in data set [2] (setting [9]) came to 50.4 min. For the same compound, the AUC(0-inf) in data set [2] (setting [10]) is 46.6 ng·h/mL. Moreover, the “AUC0-inf (iv)” value in data set [2] (mouse brain, 1 mg/kg iv) is listed as 21,532 ng*min/g. Further, in data set [2] (setting [11]), the F is recorded as 20%. The F in data set [2] (setting [12]) is given as 39%.

These data come from patent US20240300886A1, “ARYLCYCLOHEXYLAMINE DERIVATIVES AND THEIR USE IN THE TREATMENT OF PSYCHIATRIC DISORDERS” (GILGAMESH PHARMACEUTICALS, INC., priority 2021, published 2024).
